Measurements as given in patent US20180087079A1, “METHODS OF USING CELL-CYCLE INHIBITORS TO MODULATE ONE OR MORE PROPERTIES OF A CELL CULTURE” (AMGEN INC., priority 2013, published 2018).
One block for each compound: values may come before it.

How the values were obtained:
[1] = biological target: T1, CDK4/Cyclin D1 (Homo sapiens, UniProt P11802); assay: CDK4 filtration kinase assay; type: biochemical; details: CDK4/Cyclin D1, Rb fragment substrate, [33P]-ATP
T1 construct: purchased Cell Signaling Technology
T1 sequence (P11802 whole entry, species assumed, the tested form may be a part): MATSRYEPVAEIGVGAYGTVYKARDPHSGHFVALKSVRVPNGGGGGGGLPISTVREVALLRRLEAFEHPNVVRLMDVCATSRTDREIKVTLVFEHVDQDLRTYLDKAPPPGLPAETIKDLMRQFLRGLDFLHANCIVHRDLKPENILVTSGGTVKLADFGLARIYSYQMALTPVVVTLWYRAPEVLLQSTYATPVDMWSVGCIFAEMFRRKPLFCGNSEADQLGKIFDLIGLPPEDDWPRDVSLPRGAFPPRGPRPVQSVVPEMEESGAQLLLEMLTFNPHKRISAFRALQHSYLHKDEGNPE
T1 sequence (P24385 whole entry partner, species assumed, the tested form may be a part): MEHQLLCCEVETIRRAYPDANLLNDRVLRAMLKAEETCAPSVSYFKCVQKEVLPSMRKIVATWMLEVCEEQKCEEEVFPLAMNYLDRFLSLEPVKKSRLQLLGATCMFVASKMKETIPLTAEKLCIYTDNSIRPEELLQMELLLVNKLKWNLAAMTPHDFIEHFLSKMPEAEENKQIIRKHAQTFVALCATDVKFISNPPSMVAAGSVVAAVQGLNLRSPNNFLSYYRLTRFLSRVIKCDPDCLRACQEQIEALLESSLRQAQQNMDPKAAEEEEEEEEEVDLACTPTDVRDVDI
Description: The CDK4 inhibitory activity of the cell cycle inhibitors was determined with a filtration kinase assay. The compounds, kinase and substrate diluted in the kinase buffer (20 mM Tris, pH7.4, 50 mM NaCl, 1 mM DTT, 0.1% BSA) were sequentially added to a 96-well Multiscreen HTS filtration plate (Millipore). The final 100 μL reaction mixture in each well contained 0.3 μg of CDK4/Cyclin D1 (Cell Signaling Technology), 1 μg of Rb fragment (aa773-928, Millipore) for the CDK4 assay and 1 μCi of [^33P]-ATP. The mixture was incubated at room temperature for 1 hour. The proteins in the reaction were then precipitated and washed with cold TCA solution using an aspiration/filtration vacuum system. The plates were dried at room temperature, and the retained radioactivity was measured by scintillation counting. IC50 values of the compounds in the above assays were determined by non-linear regression analysis using Prism (GraphPad Software).

[2] = test system: transfected CHO cells expressing recombinant human monoclonal antibody (cell line 1); assay: 24-deep well culture, cell line 1: VCD, viability, titer, qP; type: cell-based, Chinese hamster; details: for Titer / VCD / Viability / qP: Cell Line 1; for effect on viability / growth arrest: summary of Table 2
Description: Transfected CHO cells expressing a recombinant human monoclonal antibody (mAb) are cultured in 24-deep well plates with seeding density at 1×10^7/mL for five days. At certain time periods, samples of the cultures are taken and evaluated for viable cell density (VCD; expressed in 10^6 cells/mL); percent viability (as determined by trypan blue exclusion); titer of recombinant protein (expressed in grams of protein per liter of culture, or g/L, as determined by Protein A affinity HPLC); qP, or specific productivity (expressed in picograms of recombinant protein per cell per day, or pg/c/d), the presence or absence of high molecular weight substances (usually an indicator of protein aggregation; expressed as % of the total protein); and the relative percentage of Mannose 5, a major intermediate glyco-form that attaches to N297 of the mAb. N-linked glycosylation has an impact on the tertiary structure of the antibody and may affect Fc mediated antibody effector functions. The majority of the human Fc glycans are complex biantennary structures with galactose as the prevalent terminal sugar. Immature glyco-forms, such as high-mannose glycol-forms (Man5-9), are of concern due to potential higher plasma clearance rate (as compared to the clearance rate of complex glycan linked mAbs).
Compounds are further evaluated essentially as described in Example 2 herein. Briefly, transfected CHO cells expressing recombinant human monoclonal antibody (mAb; two different cell lines expressing two different mAb, referred to as cell line 1 and cell line 2) are cultured in 24-deep well plates in the presence or absence of the compounds. At specified time points, samples of the cultures are taken and evaluated for viable cell density (VCD; expressed in 10^6 cells/mL); percent viability (as determined by any method known in the art); titer of recombinant protein (expressed in grams of protein per liter of culture, or g/L, as determined by Protein A affinity HPLC); qP, or specific productivity (expressed in picograms of recombinant protein per cell per day, or pg/c/d). Additional parameters measure include the presence or absence of high molecular weight substances (usually an indicator of protein aggregation; expressed as % of the total protein); and the relative percentage of Mannose 5. For comparison purposes, Compounds A and B, which had been previously tested, were tested again.

[3] = test system: Colo205; assay: [14C]-thymidine incorporation cell proliferation inhibition assay; type: cell-based; details: Homo sapiens, COLO 205, 72 hour incubation
Description: The cell proliferation inhibition potency of the cell cycle inhibitors was determined by using a [^14C]-thymidine incorporation assay. Exponentially growing cells (Colo205) were seeded in a 96-well Cytostar T plate (GE Healthcare Biosciences) at a density of 5×10^3 cells/well and incubated overnight. Serially diluted compounds and 0.1 μCi of [^14C]-thymidine (GE Healthcare Biosciences) were added to each well on the following day. After 72 hour incubation, isotope incorporation was determined with a β plate counter (Wallac). IC50 values of the compounds in the above assays were determined by non-linear regression analysis using Prism (GraphPad Software).

IC50 [1]: 3.17 nM
IC50 [3]: 17.1 nM
Compound: CN(C)C1CCN(c2ccc(Nc3ncc4c5ccncc5n(C5CCCC5)c4n3)nn2)CC1 [Compound C, 9-cyclopentyl-N-(6-(4-(dimethylamino)piperidin-1-yl)pyridazin-3-yl)-9H-pyrido[4′,3′:4,5]pyrrolo[2,3-d]pyrimidin-2-amine]
Titer ([2]; 10 microM, D 1): 0.48 g/L
VCD ([2]; 10 microM, D 1): 10.72 e6/mL
Viability ([2]; 10 microM, D 1): 94.37%
qP ([2]; 10 microM, D 1): 44.45 pg/c/d
Titer ([2]; 10 microM, D 2): 0.70 g/L
VCD ([2]; 10 microM, D 2): 8.77 e6/mL
Viability ([2]; 10 microM, D 2): 82.97%
qP ([2]; 10 microM, D 2): 79.79 pg/c/d
Titer ([2]; 10 microM, D 3): 0.94 g/L
VCD ([2]; 10 microM, D 3): 10.83 e6/mL
Viability ([2]; 10 microM, D 3): 84.46%
qP ([2]; 10 microM, D 3): 86.83 pg/c/d
Titer ([2]; 10 microM, D 4): 1.21 g/L
VCD ([2]; 10 microM, D 4): 12.18 e6/mL
Viability ([2]; 10 microM, D 4): 78.70%
qP ([2]; 10 microM, D 4): 99.64 pg/c/d
Titer ([2]; 20 microM, D 1): 0.48 g/L
VCD ([2]; 20 microM, D 1): 11.00 e6/mL
Viability ([2]; 20 microM, D 1): 94.55%
qP ([2]; 20 microM, D 1): 43.31 pg/c/d
Titer ([2]; 20 microM, D 2): 0.67 g/L
VCD ([2]; 20 microM, D 2): 8.28 e6/mL
Viability ([2]; 20 microM, D 2): 80.00%
qP ([2]; 20 microM, D 2): 80.51 pg/c/d
Titer ([2]; 20 microM, D 3): 0.85 g/L
VCD ([2]; 20 microM, D 3): 9.22 e6/mL
Viability ([2]; 20 microM, D 3): 78.87%
qP ([2]; 20 microM, D 3): 91.80 pg/c/d
Titer ([2]; 20 microM, D 4): 1.10 g/L
VCD ([2]; 20 microM, D 4): 10.18 e6/mL
Viability ([2]; 20 microM, D 4): 74.13%
qP ([2]; 20 microM, D 4): 108.01 pg/c/d
effect on viability [2]: greater (but still modest) decreases in viability
growth arrest [2]: more sustained growth arrest

IC50 [1]: 1.86 nM
IC50 [3]: 29.9 nM
Compound: CC1CCC(n2c3cnccc3c3cnc(Nc4ccc(N5CCNC(C)C5)nn4)nc32)CC1 (stereo not shown) [Compound D, 9-(4-methylcyclohexyl)-N-(6-(3-methylpiperazin-1-yl)pyridazin-3-yl)-9H-pyrido[4′,3′:4,5]pyrrolo[2,3-d]pyrimidin-2-amine]
Titer ([2]; 2.5 microM, D 1): 0.49 g/L
VCD ([2]; 2.5 microM, D 1): 11.85 e6/mL
Viability ([2]; 2.5 microM, D 1): 95.50%
qP ([2]; 2.5 microM, D 1): 41.37 pg/c/d
Titer ([2]; 2.5 microM, D 2): 0.73 g/L
VCD ([2]; 2.5 microM, D 2): 10.72 e6/mL
Viability ([2]; 2.5 microM, D 2): 87.30%
qP ([2]; 2.5 microM, D 2): 67.79 pg/c/d
Titer ([2]; 2.5 microM, D 3): 0.98 g/L
VCD ([2]; 2.5 microM, D 3): 11.11 e6/mL
Viability ([2]; 2.5 microM, D 3): 84.83%
qP ([2]; 2.5 microM, D 3): 87.94 pg/c/d
Titer ([2]; 2.5 microM, D 4): 1.27 g/L
VCD ([2]; 2.5 microM, D 4): 14.71 e6/mL
Viability ([2]; 2.5 microM, D 4): 82.00%
qP ([2]; 2.5 microM, D 4): 86.32 pg/c/d
Titer ([2]; 5 microM, D 1): 0.49 g/L
VCD ([2]; 5 microM, D 1): 11.76 e6/mL
Viability ([2]; 5 microM, D 1): 95.92%
qP ([2]; 5 microM, D 1): 41.95 pg/c/d
Titer ([2]; 5 microM, D 2): 0.70 g/L
VCD ([2]; 5 microM, D 2): 10.17 e6/mL
Viability ([2]; 5 microM, D 2): 86.10%
qP ([2]; 5 microM, D 2): 69.17 pg/c/d
Titer ([2]; 5 microM, D 3): 0.87 g/L
VCD ([2]; 5 microM, D 3): 9.71 e6/mL
Viability ([2]; 5 microM, D 3): 79.43%
qP ([2]; 5 microM, D 3): 89.92 pg/c/d
Titer ([2]; 5 microM, D 4): 1.11 g/L
VCD ([2]; 5 microM, D 4): 11.94 e6/mL
Viability ([2]; 5 microM, D 4): 76.30%
qP ([2]; 5 microM, D 4): 92.69 pg/c/d
Titer ([2]; 10 microM, D 1): 0.49 g/L
VCD ([2]; 10 microM, D 1): 11.35 e6/mL
Viability ([2]; 10 microM, D 1): 94.69%
qP ([2]; 10 microM, D 1): 43.16 pg/c/d
Titer ([2]; 10 microM, D 2): 0.67 g/L
VCD ([2]; 10 microM, D 2): 9.65 e6/mL
Viability ([2]; 10 microM, D 2): 82.20%
qP ([2]; 10 microM, D 2): 69.81 pg/c/d
Titer ([2]; 10 microM, D 3): 0.86 g/L
VCD ([2]; 10 microM, D 3): 9.31 e6/mL
Viability ([2]; 10 microM, D 3): 76.69%
qP ([2]; 10 microM, D 3): 92.01 pg/c/d
Titer ([2]; 10 microM, D 4): 0.99 g/L
VCD ([2]; 10 microM, D 4): 10.04 e6/mL
Viability ([2]; 10 microM, D 4): 70.89%
qP ([2]; 10 microM, D 4): 98.63 pg/c/d
effect on viability [2]: minimal effects on viability
growth arrest [2]: reasonably sustained growth arrest
